Experimental data reported in paper PMC10958117, “G-site residue S67 is involved in the fungicide-degrading activity of a tau class glutathione S-transferase from Carica papaya” (The Journal of Biological Chemistry, 2024).

Assays:
[1] = target: T1, tau class glutathione S-transferase from Carica papaya (TCpGST) (Carica papaya, UniProt O49821); experiment: HPLC degradation assay ([…] after […] h); S67A inactive; format: biochemical; parameters: gene PGST1; full-length ORF (657 bp), C-terminal His6, pET-30a, E. coli BL21(DE3), Ni-NTA purified; settings: 120 min
[2] = target: T1, tau class glutathione S-transferase from Carica papaya (TCpGST); experiment: as above; format: biochemical; parameters: gene PGST1; settings: 120 min

T1 sequence (O49821 1-218): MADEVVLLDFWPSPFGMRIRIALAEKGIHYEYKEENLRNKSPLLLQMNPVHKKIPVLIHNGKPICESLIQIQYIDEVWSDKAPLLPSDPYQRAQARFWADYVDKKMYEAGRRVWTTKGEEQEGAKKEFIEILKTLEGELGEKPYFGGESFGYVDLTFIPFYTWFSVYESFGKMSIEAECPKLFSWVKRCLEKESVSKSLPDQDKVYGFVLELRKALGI

Row | SMILES | % [1] [%] | % [2] [%]
1 | N#Cc1c(Cl)c(Cl)c(Cl)c(C#N)c1Cl [compound 11, chlorothalonil] | 26 | –
2 | c1ccc2[nH]c(-c3cscn3)nc2c1 [compound 16, thiabendazole] | – | 69
